# Patent US11649240B2, “Substituted 4-phenylpiperidines, their preparation and use” (The Trustees of Columbia University in the City of New York, priority 2014, dated 2023)
# Structures can show the parent of a compound that is named as a salt.
# Legend:
# [1] = test system: Abca4−/− mice; assay: Bisretinoid accumulation in eyes of Abca4−/− mice; assay type: in vivo, mouse; details: Abca4−/− mice starting at 17 weeks old, 25 mg/kg for 12 weeks
# Protocol: (§1) Abca4−/− mice have A2E levels in the ˜15-19 pmoles/eye range at 17 weeks old. Mice, starting at 17 weeks old, were treated with 25 mg/kg of Compound 81 for 12 weeks.
# [2] = target: serum RBP4 (Mus musculus (Mouse), UniProt Q00724); assay: Serum RBP4 levels in Abca4−/− mice; assay type: in vivo; details: 25 mg/kg for 12 weeks
# Protocol: as §1
# [3] = test system: RBP4-TTR interaction; details: cited from earlier work
# [4] = test system: serum RBP4 and retinol; details: in vivo; cited from earlier work
serum RBP4 reduction in treated mice ([2]; present-tense example),SMILES,bisretinoid accumulation in Abca4−/− mouse model ([1]; present-tense example),further results
,"CC(=O)N1CCc2c(C(=O)N3CCC(c4ccc(F)c(F)c4C(F)(F)F)CC3)n[nH]c2C1 [Compound 81, 1-(3-(4-(3,4-Difluoro-2-(trifluoromethyl)phenyl)piperidine-1-carbonyl)-4,5-dihydro-1H-pyrazolo[3,4-c]pyridin-6 (7H)-yl)ethanone]",,bisretinoid accumulation in Abca4−/− mouse model [1]: inhibited bisretinoid accumulation; serum RBP4 reduction in treated mice [2]: significant serum RBP4 reduction
significant serum RBP4 reduction,"O=C(c1n[nH]c2c1CCNC2)N1CCC(c2cccc(F)c2C(F)(F)F)CC1 [Compound 30, (4-(3-Fluoro-2-(trifluoromethyl)phenyl)piperidin-1-yl) (4,5,6,7-tetrahydro-1H-pyrazolo[3,4-c]pyridin-3-yl)methanone Hydrochloride]",inhibit bisretinoid accumulation,
significant serum RBP4 reduction,"O=C(c1n[nH]c2c1CNC2)N1CCC(c2ccc(F)c(F)c2C(F)(F)F)CC1 [Compound 38, (4-(3,4-Difluoro-2-(trifluoromethyl)phenyl)piperidin-1-yl)(1,4,5,6-tetrahydropyrrolo[3,4-c]pyrazol-3-yl)methanone Hydrochloride]",inhibit bisretinoid accumulation,
significant serum RBP4 reduction,O=C(c1n[nH]c2c1CCNC2)N1CCC(c2ccc(F)c(F)c2C(F)(F)F)CC1 [Compound 34],inhibit bisretinoid accumulation,
,"CC1=C(/C=C/C(C)=C/C=C/C(C)=C/C(=O)Nc2ccc(O)cc2)C(C)(C)CCC1 [fenretinide, N-(4-hydroxy-phenyl)retinamide]",,disruption of RBP4-TTR interaction [3]: disrupt the RBP4-TTR interaction; ocular all-trans retinol uptake and visual cycle [4]: inhibit ocular all-trans retinol uptake and slow down the visual cycle
significant serum RBP4 reduction,"O=C(c1n[nH]c2c1CNCC2)N1CCC(c2ccc(F)c(F)c2C(F)(F)F)CC1 [Compound 36, (4-(3,4-Difluoro-2-(trifluoromethyl)phenyl)piperidin-1-yl)(4,5,6,7-tetrahydro-1H-pyrazolo[4,3-c]pyridin-3-yl)methanone Trifluoroacetic Acid Salt]",inhibit bisretinoid accumulation,
significant serum RBP4 reduction,"O=C(c1n[nH]c2c1CNCC2)N1CCC(c2cccc(F)c2Cl)CC1 [Compound 42, (4-(2-Chloro-3-fluorophenyl)piperidin-1-yl)(4,5,6,7-tetrahydro-1H-pyrazolo[4,3-c]pyridin-3-yl)methanone Hydrochloride]",inhibit bisretinoid accumulation,
significant serum RBP4 reduction,"O=C(c1n[nH]c2c1CCNC2)N1CCC(c2cccc(F)c2Cl)CC1 [Compound 40, (4-(2-Chloro-3-fluorophenyl)piperidin-1-yl) (4,5,6,7-tetrahydro-1H-pyrazolo[3,4-c]pyridin-3-yl)methanone Hydrochloride]",inhibit bisretinoid accumulation,
